# Assay results as given in patent publication US9155778B2, “Tripeptides that down regulate the activity of plasma membrane transporters including sodium-D-glucose cotransporter SgIt1” (JULIUS-MAXMILLIANS-UNIVERSITAT WURZBURG, priority 2005, dated 2015).
# Read-outs that look alike come from different tables or passages of the source. Peptide text beside a SMILES is read from it.
# T1: hPEPT1 (Homo sapiens, UniProt P46059)
# T1 construct: expressed in transfected cells; host or cells: Xenopus laevis oocytes (30 ng cRNA per oocyte)
# T1 sequence (P46059 1-708): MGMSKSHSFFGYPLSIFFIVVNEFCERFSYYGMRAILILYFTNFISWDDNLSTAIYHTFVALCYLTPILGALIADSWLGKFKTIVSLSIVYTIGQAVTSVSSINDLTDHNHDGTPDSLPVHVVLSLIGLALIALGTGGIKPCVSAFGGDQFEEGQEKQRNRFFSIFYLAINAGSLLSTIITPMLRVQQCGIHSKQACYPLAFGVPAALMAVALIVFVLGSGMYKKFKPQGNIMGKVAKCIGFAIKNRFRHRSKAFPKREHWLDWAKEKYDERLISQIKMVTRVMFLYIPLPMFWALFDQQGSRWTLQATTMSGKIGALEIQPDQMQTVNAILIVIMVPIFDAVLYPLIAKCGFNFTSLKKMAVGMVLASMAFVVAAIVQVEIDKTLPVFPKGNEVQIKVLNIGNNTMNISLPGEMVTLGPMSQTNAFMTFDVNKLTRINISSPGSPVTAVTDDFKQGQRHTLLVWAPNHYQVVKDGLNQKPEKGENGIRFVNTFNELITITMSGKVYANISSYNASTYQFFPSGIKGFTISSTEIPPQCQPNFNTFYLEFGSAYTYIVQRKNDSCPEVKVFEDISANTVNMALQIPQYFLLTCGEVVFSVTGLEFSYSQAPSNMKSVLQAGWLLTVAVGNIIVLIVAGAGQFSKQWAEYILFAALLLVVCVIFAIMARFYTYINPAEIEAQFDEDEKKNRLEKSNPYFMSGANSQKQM
# T2: hSGLT1 (Homo sapiens, UniProt P13866)
# T2 construct: expressed in transfected cells; host or cells: Xenopus laevis oocytes (cRNA injection)
# T2 sequence (P13866 1-664): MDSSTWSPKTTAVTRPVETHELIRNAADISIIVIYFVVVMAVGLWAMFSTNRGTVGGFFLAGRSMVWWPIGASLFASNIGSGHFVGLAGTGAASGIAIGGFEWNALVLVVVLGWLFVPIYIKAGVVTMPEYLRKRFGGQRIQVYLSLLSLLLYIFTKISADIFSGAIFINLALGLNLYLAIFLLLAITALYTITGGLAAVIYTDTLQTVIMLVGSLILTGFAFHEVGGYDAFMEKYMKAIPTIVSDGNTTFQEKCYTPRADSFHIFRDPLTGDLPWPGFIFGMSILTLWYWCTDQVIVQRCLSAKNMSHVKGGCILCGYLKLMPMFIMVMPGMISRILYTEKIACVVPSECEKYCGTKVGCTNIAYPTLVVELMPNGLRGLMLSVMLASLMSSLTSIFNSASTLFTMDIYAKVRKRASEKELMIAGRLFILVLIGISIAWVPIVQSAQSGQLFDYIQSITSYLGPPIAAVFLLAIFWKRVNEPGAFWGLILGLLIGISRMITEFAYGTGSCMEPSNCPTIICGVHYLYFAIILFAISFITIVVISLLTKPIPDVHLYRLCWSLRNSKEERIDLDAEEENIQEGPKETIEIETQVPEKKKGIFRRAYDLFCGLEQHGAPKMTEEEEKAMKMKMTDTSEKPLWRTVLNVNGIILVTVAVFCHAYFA
# T3: rbSGLT1 (Oryctolagus cuniculus, UniProt P11170)
# T3 construct: expressed in transfected cells; host or cells: Xenopus laevis oocytes (cRNA injection)
# T3 sequence (P11170 1-662): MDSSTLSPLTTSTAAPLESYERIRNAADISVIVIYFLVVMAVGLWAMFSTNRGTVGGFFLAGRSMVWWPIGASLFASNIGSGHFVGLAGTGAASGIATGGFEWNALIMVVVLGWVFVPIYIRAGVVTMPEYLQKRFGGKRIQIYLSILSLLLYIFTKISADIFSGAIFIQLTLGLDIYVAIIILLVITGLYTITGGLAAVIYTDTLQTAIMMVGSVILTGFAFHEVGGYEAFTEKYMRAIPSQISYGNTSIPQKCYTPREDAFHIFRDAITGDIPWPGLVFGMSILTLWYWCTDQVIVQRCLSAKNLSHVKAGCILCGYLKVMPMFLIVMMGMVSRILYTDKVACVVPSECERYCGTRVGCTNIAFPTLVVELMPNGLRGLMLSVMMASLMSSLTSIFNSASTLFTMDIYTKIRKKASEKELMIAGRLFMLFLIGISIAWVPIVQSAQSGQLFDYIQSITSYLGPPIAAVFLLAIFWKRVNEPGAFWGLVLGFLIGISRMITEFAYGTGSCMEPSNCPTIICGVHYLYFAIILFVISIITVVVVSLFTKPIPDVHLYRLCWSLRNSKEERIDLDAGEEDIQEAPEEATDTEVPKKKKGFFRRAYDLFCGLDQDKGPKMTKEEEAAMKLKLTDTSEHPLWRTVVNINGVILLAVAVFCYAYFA
# T4: human organic cation transporter 1 (hOCT1) (Homo sapiens, UniProt O15245)
# T4 construct: expressed in transfected cells; host or cells: oocytes
# T4 sequence (O15245 1-554): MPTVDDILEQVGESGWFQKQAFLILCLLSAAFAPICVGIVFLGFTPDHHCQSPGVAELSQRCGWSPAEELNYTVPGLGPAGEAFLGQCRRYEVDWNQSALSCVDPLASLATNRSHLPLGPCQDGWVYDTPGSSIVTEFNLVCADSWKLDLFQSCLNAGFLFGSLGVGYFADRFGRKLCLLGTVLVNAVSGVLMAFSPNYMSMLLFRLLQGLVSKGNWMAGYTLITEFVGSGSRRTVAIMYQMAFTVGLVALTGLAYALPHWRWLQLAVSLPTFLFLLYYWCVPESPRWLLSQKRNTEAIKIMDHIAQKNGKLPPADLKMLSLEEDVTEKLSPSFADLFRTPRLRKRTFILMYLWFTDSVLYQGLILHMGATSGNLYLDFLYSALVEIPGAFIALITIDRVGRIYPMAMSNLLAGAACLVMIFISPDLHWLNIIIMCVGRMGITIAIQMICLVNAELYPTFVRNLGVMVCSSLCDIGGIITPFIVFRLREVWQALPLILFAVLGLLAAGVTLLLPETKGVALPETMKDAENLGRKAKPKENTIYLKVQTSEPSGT
# B1: hRS1 protein: purified human regulatory protein RS1 with six C-terminal histidines, SEQ ID NO: 2 (protein, listed as Homo sapiens)
# chain: MSSLPTSDGFNHPARSSGQSPDVGNPMSLARSVSASVCPIKPSDSDRIEPKAVKALKASAEFQLNSEKKEHLSLQDLSDHASSADHAPTDQSPAMPMQNSSEEITVAGNLEKSAERSTQGLKFHLHTRQEASLSVTSTRMHEPQMFLGEKDWHPENQNLSQVSDPQQHEEPGNEQYEVAQQKASHDQEYLCNIGDLELPEERQQNQHKIVDLEATMKGNGLPQNVDPPSAKKSIPSSECSGCSNSETFMEIDTAQQSLVTLLNSTGRQNANVKNIGALDLTLDNPLMEVETSKCNPSSEILNDSISTQDLQPPETNVEIPGTNKEYGHYSSPSLCGSCQPSVESAEESCPSITAALKELHELLVVSSKPASENTSEEVICQSETIAEGQTSIKDLSERWTQNEHLTQNEQCPQVSFHQAISVSVETEKLTGTSSDTGREAVENVNFRSLGDGLSTDKEGVPKSRESINKNRSVTVTSAKTSNQLHCTLGVEISPKLLAGEEDALNQTSEQTKSLSSNFILVKDLGQGIQNSVTDRPETRENVCPDASRPLLEYEPPTSHPSSSPAILPPLIFPATDIDRILRAGFTLQEALGALHRVGGNADLALLVLLAKNIVVPT
# modifications: C-terminal His6 tag
# Columns and labels:
# hPEPT1 = molecular target: T1, hPEPT1; assay: Electrogenic peptide transport by hPEPT1 in oocytes, two-electrode voltage clamp; type: cell-based; details: 5 mM peptide
# Protocol: (§1) The oocytes were incubated for three days at 16° C. in ORi buffer (in mM: 5 HEPES-Tris, pH 7.4, 100 NaCl, 3 KCl, 2 CaCl2, and 1 MgCl2). […] The oocytes were superfused with Ori buffer titrated to pH 6.5, the membrane potential of the oocytes was clamped to −40 mV, and inward current induced by superfusion with Ori buffer (pH 6.5) containing 5 mM of a control dipeptide or 5 mM of the tested tripeptide was measured. • (D) Expression and Purification of hRS1
# RS1 = assay: Immunostaining of RS1 at the TGN in LLC-PK1 cells after brefeldin A; type: cell-based; details: 2 μg/ml brefeldin A, 1 or 5 min, subconfluent LLC-PK1 cells
# Protocol: For immunostaining, LLC-PK1 cells were grown on coverslips to about 50% confluence. The cells were washed twice with washing buffer (5 mM 3-(N-morpholino)propanesulfonic acid-NaOH, pH 7.4, 100 mM NaCl, 3 mM KCl, 2 mM CaCl2, and 1 mM MgCl2), fixed for 12 min with 4% (w/v) paraformaldehyde diluted in washing buffer, and washed twice again. Free aldehyde groups were quenched by 10 min incubation with washing buffer containing 40 mM glycine. For immunoreactions, washed cells were permeabilized by a 10-min incubation with washing buffer containing 0.25% (w/v) TritonX-114, and incubated over night at 4° C. with primary antibodies diluted in washing buffer. The dilutions of primary antibodies were as follows: rabbit-anti-RS1-Ab 1:50 (Valentin (2000), Biochim. Biophys. Acta, 1468, 367-380); QIS30 directed against SGLT1 1:400 (Kipp (2003), Am. J. Physiol., 285, C737-C749), sheep-anti-TGN46 1:125 (from Diagnostic International, Schriesheim, Germany). […]
# The specificity of the antibodies was controlled as follows. […] In controls, no cross-reactivity of the used secondary antibodies with false primary antibodies used in the same experiment was detected. […]
# hSGLT1 = molecular target: T2, hSGLT1; assay: hSGLT1 expressed [14C]AMG uptake in Xenopus oocytes after injection of hRS1 protein or peptides; type: cell-based
# rbSGLT1 = molecular target: T3, rbSGLT1; assay: rbSGLT1 expressed [14C]AMG uptake in oocytes after peptide injection; type: cell-based, rabbit; details: 50 nl containing 3 mM of each peptide, 30 min, 50 μM [14C]AMG; compared with hSGLT1
# Protocol: as §1
# To develop drugs on the basis of the identified peptides animal models are required.
# [1] = molecular target: T4, human organic cation transporter 1 (hOCT1); assay: [14C]TEA uptake expressed by hOCT1 in oocytes; type: cell-based; details: intracellular AMG concentration of 0.1 mM
# Protocol: Corresponding measurements were performed in the presence of intracellular AMG concentrations of 0.1 mM, <0.01 mM or 10 mM.
molecule,measurement,setting,value
"NCC(=O)N[C@@H](CCC(N)=O)C(=O)O [GC, glycylglutamine, reference compound] (H-Gly-Gln-OH)",inward current induced in oocytes expressing hPEPT1,"hPEPT1; pH 6.5, clamped to −40 mV",significant inward currents
same,inward current in control oocytes not injected with hPEP1-cRNA,"hPEPT1; pH 6.5, data not shown",no inward currents
C[C@H]1CCC/C=C/[C@@H]2C[C@H](O)C[C@H]2[C@H](O)/C=C/C(=O)O1 [brefeldin A],RS1 immunoreactivity at the TGN / perinuclear compartment,RS1,released from the TGN
IKPSDSDRIEP [Isoleucine-Lysine-Proline-Serine-Aspartic acid-Serine-Aspartic acid -Arginine-Isoleucine-Glutamic acid-Proline],inhibition of glucose uptake expressed by hSGLT1,hSGLT1,about 50%
same,effect on glucose uptake expressed by rbSGLT1,rbSGLT1,same effect
SDSDRIEP [Serine-Aspartic acid-Serine-Aspartic acid-Arginine-Isoleucine-Glutamic acid-Proline],inhibition of glucose uptake expressed by hSGLT1,hSGLT1,about 50%
same,inhibition of hSGLT1 expressed AMG uptake after stimulation of protein kinase C,hSGLT1,not changed
same,inhibition of hSGLT1 expressed AMG uptake with coexpressed dominant negative mutant of dynamin I,hSGLT1,not changed
same,inhibitory effect on expression of hSGLT1 when the exocytotic pathway is blocked,hSGLT1,could be prevented
SVQPCQENQ [reference compound],inhibition of [14C]AMG uptake by injected peptide,"hSGLT1; 50 nl/oocyte containing 1.5 mM peptide, 30 min before uptake",No inhibition
B1,hOCT1 expressed [14C]TEA uptake after injection,[1],appears to be inhibited
same,inhibitory effect on expression of hSGLT1 when the exocytotic pathway is blocked,hSGLT1,could be prevented
same,inhibition of AMG uptake by injected hRS1 protein in the presence of BTXB,"hSGLT1; 5 ng hRS1 plus 1.7 ng BTXB, 30 min",no inhibition
same,inhibition of hSGLT1 expressed AMG uptake after stimulation of protein kinase C,hSGLT1; PKC stimulated with DOG or PMA,increased
same,inhibition of hSGLT1 expressed AMG uptake with coexpressed dominant negative mutant of dynamin I,hSGLT1; dominant negative dynamin I coexpressed,reduced
same,inhibition of hSGLT1 expressed AMG uptake when endocytosis is inhibited,"hSGLT1; with clorpromazin, imipramin or filipin, data not shown",unchanged
